Where “and” joins values, the source holds several entries; their conditions need not be identical. Identical values can stand only once.
Key:
[1] = tested on: VEGF-induced angiogenesis; assay: VEGF-induced angiogenesis in Matrigel angio-reactors in FVB/N mice, FITC-dextran fluorescence; format: in vivo
Protocol: The peptides of the invention were also tested in an in vivo model of anti-angiogenic activity. This model analyzes VEGF-induced angiogenesis as it occurs in angio-reactors filled with Matrigel in wild-type FVB/N mice (Guedez et al., 2003, Am. J. Pathol. 162:1431-1439).
• Sterile, polyethene tubing (0.14 cm internal diameter) is cut to standard 1 cm lengths using a plexiglass template and single edge razor blade. These tubes are sealed at one end with nail-polish. Into the tubes, 20 μl of Matrigel (growth factor free obtained from BD Biosciences) containing 500 ng/ml VEGF with or without the indicated peptides is injected. After one hour of polymerization of the Matrigel at room temperature the angio-reactors are subcutaneously implanted into both flanks of wild-type FVB/N female mice (8-10 weeks old).
• After 10 days, angiogenesis in the angio-reactors is determined. Mice receive a 100 μl injection of 25 mg/ml of FITC-dextran in phosphate-buffered saline (PBS) via tail vein 20 minutes before collection of the angio-reactors. Quantification of vessel functionality is performed by removal of the Matrigel from the angio-reactors and the fluorescence is measured using a FLUOstar Galaxy microplate reader (excitation 485 nm, emission 520 nm, BMG Labtechnologies GmbH, Germany). The mean relative fluorescence±SD for 10 angio-reactors is determined and statistical analysis performed.

[2] = tested on: bovine retinal endothelial cells (BRE); assay: VEGF mediated survival/proliferation of BRE cells, WST-1 assay, peptides added at plating (before cells adhered); format: cell-based; settings: VEGF 25 ng/ml, 72 h; for WST-1 induced colorimetric change measured at 440 nm, average: average of wells; for WST-1 induced colorimetric change measured at 440 nm: single wells, 1% FBS
Protocol: The anti-angiogenic activities of the peptides were tested by measuring the level of inhibition of VEGF mediated survival/proliferation of bovine retinal endothelial cells (BRE), a standard cell line used to test anti-angiogenic compounds. Cells were maintained in Cambrex EGM-2MV medium. On day one cells were starved for either 6 hours or overnight, and thereafter trypsinized and plated in a 96 well plate in 100 μl of Invitrogen OptiMem+1% fetal bovine serum. A 100 μl aliquot of Invitrogen OptiMem+1% fetal bovine serum was then added to the wells in addition to, where appropriate, VEGF to a final concentration of 25 ng/ml and the various peptides to final concentration of 12.5, 25, 50 and 100 μg/ml. After 72 hours incubation, the number of live cells in each well was determined using the WST-1 assay (Roche).
The experiment was repeated using higher concentrations of peptide, to a maximum concentration of 200 μg/ml. This required the addition of a substantial amount of water (the peptides are soluble in water and are maintained as stock solution of 2 mg/ml). Therefore, we tested whether the addition of water itself would have any inhibitory effects. As before, BRE were maintained in Cambrex EGM-2MV medium. On day one, cells were starved for either 6 hours or overnight, and thereafter trypsinized and plated in a 96 well plate in 100 μl of OptiMem+1% fetal bovine serum. A 100 μl aliquot of OptiMem+1% fetal bovine serum was then added to the wells, further containing, where appropriate, VEGF to a final concentration of 25 ng/ml and the various peptides to final concentration of 25, 50, 100 and 200 μg/ml. After 72 hours incubation, the amount of live cells in each well was measured using the WST-1 assay (Roche). […]

[3] = tested on: Mouse B16-F1 melanoma cells; assay: Growth of subcutaneous B16 melanoma tumor in C57BL/6 mice; format: in vivo; set-up: unit not given beside the values; settings: group average, Doxorubicin group
Protocol: The peptides of the invention were tested in an in vivo model of anti-tumor activity. This model compares the growth of subcutaneous B16 melanoma tumor either untreated or treated with either 20 mg/kg, 40 mg/kg, 100 mg/kg daily ip doses of ST100,059.
Male C57BL/6 mice were obtained with a mean body weight of 20±2 g. Mouse B16-F1 melanoma cells were implanted subcutaneously (5×10^5 cell per animal). Peptides (formulated in water) were administered ip daily starting the day after injection of cells. Tumors became palpable around 9 days after injection of the cells. Tumors were then measured every 2 days.

[4] = tested on: human breast cancer MDA-MB231 tumor xenografts; assay: Human breast cancer MDA-MB231 tumor xenografts in nude mice: caliper and actual tumor weight, necrotic score; format: in vivo; settings: Docetaxel group
Protocol: The peptides of the invention were tested in an in vivo model of anti-tumor activity. This model compares the growth of the human breast cancer MDA-MB231 tumor xenografts in nude mice treated with 10 mg/kg or 20 mg/kg daily ip of ST100,059, docetaxel or saline.
Female nude mice (nu/nu) between 5 and 6 weeks of age weighing approximately 20 g were obtained from Harlan, Inc. Animals were implanted subcutaneously (s.c.) by trocar with fragments of human tumors harvested from s.c. grown tumors in nude mice hosts. When the tumors were approximately 60-75 mg in size (about 10-15 days following implantation), the animals were pair-matched into treatment and control groups. Each group contained 8-10 mice, each of which is ear-tagged and followed individually throughout the experiment.
The administration of drugs or controls began the day the animals were pair-matched with tumor size of about 70 mg (Day 1). Mice were weighed and tumor measurements were obtained using calipers twice weekly, starting on Day 1. These tumor measurements were converted to mg tumor weight by the standard formula, (W^2×L)/2. Upon termination of the experiment, the mice were weighed, sacrificed and their tumors were excised. The tumors were weighed, and the mean and medium tumor weight per group was calculated.
For each group, the table reports the caliper measurements and the actual tumor weights obtained as described above.

in vitro = in vitro ADME, bovine; settings: serum
Protocol: A stock solution of 1 mM peptide dissolved in water was made. The stock was then diluted to 100 μM in either OptiMem medium+100 units/ml of penicillin and 100 μg/ml streptomycin sulfate+1% fetal bovine serum or in OptiMem+Pen/Strep+10% fetal bovine serum. The diluted samples were placed in a 24-well tissue culture plate in an incubator at 37 degrees. Aliquots of 50-100 μl were removed at 4, 6, 18, 24, 48 and 72 hrs and frozen at −70° C. until analysis.
Samples of 20 μl were separated on a C18 reverse phase column (4.8×250 mm) with a gradient of acetonitrile/water 0.1% TFA and analyzed using a single quad mass spectrometer. Singly or multiply charged peaks were detected depending on the mass of the peptide. Peptide degradation was determined in two ways: loss of peak area in the chromatogram produced using the mass spectrometer as the detector and loss of the main peak in the mass spectrum with simultaneous appearance of a peak(s) from a breakdown product.

[5] = experiment 2, Bonferroni's Multiple Comparison Test

Compound	WST-1 induced colorimetric change measured at 440 nm, average ([2]; peptide 12.5 μg/ml, Table 2)	WST-1 induced colorimetric change measured at 440 nm, average ([2]; peptide 25 μg/ml, Table 2)	WST-1 induced colorimetric change measured at 440 nm, average ([2]; peptide 25 μg/ml, Table 3)	WST-1 induced colorimetric change measured at 440 nm, average ([2]; peptide 50 μg/ml, Table 2)	WST-1 induced colorimetric change measured at 440 nm, average ([2]; peptide 50 μg/ml, Table 3)	WST-1 induced colorimetric change measured at 440 nm, average ([2]; peptide 100 μg/ml, Table 2)	WST-1 induced colorimetric change measured at 440 nm, average ([2]; peptide 100 μg/ml, Table 3)	WST-1 induced colorimetric change measured at 440 nm, average ([2]; peptide 200 μg/ml, Table 3)	WST-1 induced colorimetric change measured at 440 nm ([2]; peptide 12.5 μg/ml, Table 2)	WST-1 induced colorimetric change measured at 440 nm ([2]; peptide 25 μg/ml, Table 2)	WST-1 induced colorimetric change measured at 440 nm ([2]; peptide 25 μg/ml, Table 3)	WST-1 induced colorimetric change measured at 440 nm ([2]; peptide 50 μg/ml, Table 2)	WST-1 induced colorimetric change measured at 440 nm ([2]; peptide 50 μg/ml, Table 3)	WST-1 induced colorimetric change measured at 440 nm ([2]; peptide 100 μg/ml, Table 2)	WST-1 induced colorimetric change measured at 440 nm ([2]; peptide 100 μg/ml, Table 3)	WST-1 induced colorimetric change measured at 440 nm ([2]; peptide 200 μg/ml, Table 3)	further results
SPWSSCSVTCGDGVITRIR (listed as Homo sapiens) [TSP616]	–	–	–	–	–	–	–	–	–	–	–	–	–	–	–	–	relative fluorescence (FITC-dextran) of angio-reactors, mean ([1]; experiment 1, group mean, VEGF + inhibitor 40 μM): 6111; Mean Diff., pbs vs inhibitor group [1, 5]: −0.5; Mean Diff., vegf vs inhibitor group [1, 5]: 2645; relative fluorescence of angio-reactors, average ([1]; experiment 2, group average): 635; relative fluorescence of angio-reactors, median ([1]; experiment 2, group median): 484
LPPHSS (listed as Homo sapiens) [ST100,037]	0.753	0.708	0.449	0.643	0.442	0.694	0.466	0.386	0.780 and 0.730 and 0.748	0.716 and 0.713 and 0.695	0.439 and 0.432 and 0.476	0.636 and 0.659 and 0.633	0.427 and 0.438 and 0.462	0.692 and 0.697 and 0.694	0.449 and 0.486 and 0.462	0.384 and 0.401 and 0.372	–
COc1cccc2c1C(=O)c1c(O)c3c(c(O)c1C2=O)C[C@@](O)(C(=O)CO)C[C@@H]3O[C@H]1C[C@H](N)[C@H](O)[C@H](C)O1 [Doxorubicin]	–	–	–	–	–	–	–	–	–	–	–	–	–	–	–	–	subcutaneous B16 melanoma tumor measurement, Average ([3]; Day 11): 213.41; subcutaneous B16 melanoma tumor measurement, Average ([3]; Day 13): 419.71; subcutaneous B16 melanoma tumor measurement, Average ([3]; Day 15): 744.61; subcutaneous B16 melanoma tumor measurement, Average ([3]; Day 16): 1261.33
CC(=O)O[C@@]12CO[C@@H]1C[C@H](O)[C@@]1(C)C(=O)[C@H](O)C3=C(C)[C@@H](OC(=O)[C@H](O)[C@@H](NC(=O)OC(C)(C)C)c4ccccc4)C[C@@](O)([C@@H](OC(=O)c4ccccc4)[C@H]21)C3(C)C [Docetaxel]	–	–	–	–	–	–	–	–	–	–	–	–	–	–	–	–	actual tumor weight, Average ([4]; group average): 1523 mg; caliper tumor weight, Average ([4]; group average): 1742.22 mg; actual tumor weight, Median ([4]; group median): 35 mg; caliper tumor weight, Median ([4]; group median): 75 mg; caliper tumor weight ([4]; individual mouse, caliper measurement converted by (W^2×L)/2, at termination): 87.5 mg and 32 mg (2×) and 48 mg and 75 mg (2×) and 288 mg and 126 mg (2×); actual tumor weight ([4]; individual mouse, excised tumor weighed): 54 mg and 10 mg and 18 mg and 26 mg and 35 mg and 225 mg and 25 mg and 82 mg and 46 mg
LPPHSSQSP ((1)..(1) May be biotinylated; listed as Homo sapiens) [ST100,039]	0.686	0.656	0.462	0.576	0.496	0.609	0.478	0.443	0.701 and 0.735 and 0.621	0.717 and 0.687 and 0.564	0.411 and 0.495 and 0.480	0.605 and 0.593 and 0.530	0.489 and 0.507 and 0.491	0.659 and 0.588 and 0.581	0.451 and 0.517 and 0.465	0.416 and 0.453 and 0.459	–
CC(C)C[C@H](NC(=O)[C@H](CO)NC(=O)[C@@H](NC(=O)[C@H](C)N)[C@@H](C)O)C(=O)N1CCC[C@H]1C(=O)N1CCC[C@H]1C(=O)N[C@@H](Cc1c[nH]cn1)C(=O)N[C@@H](CO)C(=O)N[C@@H](CO)C(=O)N[C@@H](CCC(N)=O)C(=O)N[C@@H](CO)C(=O)N1CCC[C@H]1C(=O)O [ST100,038, ATSLPPHSSQSP]	–	–	–	–	–	–	–	–	–	–	–	–	–	–	–	–	peptide remaining (in words) (in vitro; bovine, 18 h): none remained; metabolised at 4 h, 100 μM (in vitro): 50%; metabolised at 6 h, 100 μM (in vitro): 65%; metabolised at 18 h, 100 μM (in vitro): 25%; metabolised at 24 h, 100 μM (in vitro): 33%; metabolised at 48 h, 100 μM (in vitro): 60%; metabolised at 72 h, 100 μM (in vitro): 85%

Reference: patent US20090047335A1, “Anti-angiogenic peptides and methods of use thereof” (SOPHERION THERAPEUTICS, INC., priority 2004, published 2009)
